30 compounds from patent US20250313548A1 (Actio Biosciences, Inc., priority 2023, published 2025) can be followed below.

Where only a bound is given, the exact number is not on record here.

human, KCNT1, sequence (Q5JUK3 whole entry): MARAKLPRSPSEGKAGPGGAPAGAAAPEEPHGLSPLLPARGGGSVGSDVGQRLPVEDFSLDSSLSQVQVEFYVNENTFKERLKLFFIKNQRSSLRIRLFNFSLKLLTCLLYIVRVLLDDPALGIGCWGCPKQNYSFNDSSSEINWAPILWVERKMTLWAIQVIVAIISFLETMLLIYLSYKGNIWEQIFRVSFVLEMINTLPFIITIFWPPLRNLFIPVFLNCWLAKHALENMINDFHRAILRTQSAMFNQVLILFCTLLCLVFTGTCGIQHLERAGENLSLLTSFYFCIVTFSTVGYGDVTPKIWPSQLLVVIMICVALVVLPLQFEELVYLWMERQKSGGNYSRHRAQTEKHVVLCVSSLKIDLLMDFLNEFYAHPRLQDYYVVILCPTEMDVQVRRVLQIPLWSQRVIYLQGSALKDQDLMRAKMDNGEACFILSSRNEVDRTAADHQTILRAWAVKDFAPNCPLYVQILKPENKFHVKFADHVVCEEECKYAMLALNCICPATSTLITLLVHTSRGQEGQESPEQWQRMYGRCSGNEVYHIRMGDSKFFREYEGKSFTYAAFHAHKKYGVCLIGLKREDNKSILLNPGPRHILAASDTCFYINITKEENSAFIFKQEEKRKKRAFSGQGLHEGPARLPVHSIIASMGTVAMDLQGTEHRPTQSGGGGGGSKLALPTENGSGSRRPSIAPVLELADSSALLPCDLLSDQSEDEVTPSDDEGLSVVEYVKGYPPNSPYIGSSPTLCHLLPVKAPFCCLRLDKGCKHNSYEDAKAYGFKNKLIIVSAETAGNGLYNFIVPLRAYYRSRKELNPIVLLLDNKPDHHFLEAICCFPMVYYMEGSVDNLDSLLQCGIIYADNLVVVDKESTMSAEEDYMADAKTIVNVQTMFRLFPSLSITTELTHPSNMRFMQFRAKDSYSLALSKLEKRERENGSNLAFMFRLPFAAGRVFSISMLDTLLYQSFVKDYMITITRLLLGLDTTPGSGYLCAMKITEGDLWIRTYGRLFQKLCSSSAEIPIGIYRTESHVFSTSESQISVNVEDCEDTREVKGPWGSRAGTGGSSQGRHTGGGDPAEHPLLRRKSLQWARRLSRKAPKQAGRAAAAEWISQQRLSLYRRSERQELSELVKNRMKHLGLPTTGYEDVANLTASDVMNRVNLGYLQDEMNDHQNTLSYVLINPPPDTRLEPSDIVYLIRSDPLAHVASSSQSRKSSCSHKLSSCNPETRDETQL

This assay has as its target human, KCNT1 (Homo sapiens (Human), UniProt Q5JUK3). The assay is described as follows: FLIPR Tl/K Flux Assay. Type of assay: cell-based. The note with it: HEK293 cells stably expressing human KCNT1; Tl+ flux stimulated with EC80 of agonist Loxapine. The essentials:
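Inhibition values come from a Hill-equation fit of % inhibition versus log concentration, using normalized fluorescence (Fmax/Fmin) over a 160 s read. The read followed stimulation with Tl+ plus EC80 agonist loxapine after 30 min compound pre-incubation at 25 °C. Cells were KCNT1-expressing HEK293, dye-loaded 1 h in pH 7.4 HEPES/HBSS with 5 mM probenecid.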
The IC50 is the concentration at which inhibition is half-maximal. Read a high IC50 as weaker potency. In the case of `Cn1nc(C(F)(F)F)cc1C(=O)N[C@@H]1CCc2nn(-c3ccnc(C(F)(F)F)c3)cc21` [Compound I-1b, (R)-1-Methyl-3-(trifluoromethyl)-N-(2-(2-(trifluoromethyl)pyridin-4-yl)-2,4,5,6-tetrahydrocyclopenta[c]pyrazol-4-yl)-1H-pyrazole-5-carboxamide], the IC50 was more than 1000 nM.
The compound `Cc1cc(C(=O)N[C@H]2CCCn3nc(-c4ccnc(C(F)(F)F)c4)cc32)cn(C)c1=O` [Compound I-397a] gave an IC50 of more than 1000 nM.
In turn, `COc1cc(-c2nc3c(o2)CCC[C@@H]3NC(=O)c2cccc(C#N)c2)ccn1` [Compound I-294a, (S)-3-Cyano-N-(2-(2-methoxypyridin-4-yl)-4,5,6,7-tetrahydrobenzo[d]oxazol-4-yl)benzamide] had an IC50 of less than 250 nM.
With `COc1cc(-c2cc3n(n2)CCC[C@@H]3NC(=O)c2cc(C(F)(F)F)nn2C)ccn1` [Compound I-366a], the IC50 was less than 250 nM.
Next, `CCc1cc(-n2cc3c(n2)CC[C@@H]3NC(=O)c2cc(C(F)(F)F)nn2C)ccn1` [Compound I-69a]: less than 250 nM.
Next, `O=C(N[C@H]1CCCc2nc(-c3ccnc(C(F)(F)F)c3)oc21)c1cccc(C(F)(F)F)c1` [Compound I-188a, (S)-3-(Trifluoromethyl)-N-(2-(2-(trifluoromethyl)pyridin-4-yl)-4,5,6,7-tetrahydrobenzo[d]oxazol-7-yl)benzamide]: less than 250 nM; `O=C(NC1CCCc2nn(-c3ccnc(C(F)(F)F)c3)cc21)c1ccncc1` (racemic) [Compound I-36, (rac)-N-(2-(2-(Trifluoromethyl)pyridin-4-yl)-4,5,6,7-tetrahydro-2H-indazol-4-yl)isonicotinamide]: more than 1000 nM; `O=C(N[C@H]1CCc2nn(-c3ccnc(C(F)(F)F)c3)cc21)c1cnn(C(F)(F)F)c1` [Compound I-566a, (S)-1-(Trifluoromethyl)-N-(2-(2-(trifluoromethyl)pyridin-4-yl)-2,4,5,6-tetrahydrocyclopenta[c]pyrazol-4-yl)-1H-pyrazole-4-carboxamide]: less than 250 nM.
Consider `COc1cc(-c2nc3c(o2)[C@@H](NC(=O)c2cccc(OC(F)(F)F)c2)CCC3)c(Cl)cn1` [Compound I-164a, (S)-N-(2-(5-Chloro-2-methoxypyridin-4-yl)-4,5,6,7-tetrahydrobenzo[d]oxazol-7-yl)-3-(trifluoromethoxy)benzamide], for which the IC50 is less than 250 nM.
To `O=C(N[C@H]1CCc2nc(-c3ccnc(C(F)(F)F)c3)ccc21)c1cccc(C(F)(F)F)c1` [Compound I-133a, (S)-3-(Trifluoromethyl)-N-(2-(2-(trifluoromethyl)pyridin-4-yl)-6,7-dihydro-5H-cyclopenta[b]pyridin-5-yl)benzamide] belongs less than 250 nM.
Next, `COc1cc(-c2nc3c(o2)CCC[C@@H]3NC(=O)c2cc(C(F)(F)F)nn2C)ccn1` [Compound I-428a]: less than 250 nM; `COc1cc(C2=NC3C(NC(=O)c4cccc(C#N)c4)CCCCC3N2)ccn1` (stereo not drawn) [Compound I-464]: more than 1000 nM; `COc1cc(-c2nc3c(o2)[C@@H](NC(=O)c2cncc(C(F)(F)F)n2)CCC3)c(F)cn1` [Compound I-173a]: 250 to 500 nM.
In the case of `O=C(N[C@H]1CCCn2nc(-c3ccnc(C(F)(F)F)c3)cc21)c1ccc(F)c(C(F)(F)F)c1` [Compound I-410a], the IC50 was less than 250 nM.
Regarding `O=C(N[C@H]1CCCn2nc(-c3ccnc(C(F)(F)F)c3)cc21)c1cc2n(n1)CCC2` [Compound I-368a], the IC50 is more than 1000 nM.
In turn, `Cc1ccccc1C(=O)N[C@H]1CCc2nn(-c3ccnc(C(F)(F)F)c3)cc21` [Compound I-92a] came in with an IC50 of less than 250 nM.
Turning to `O=C(N[C@H]1CCCn2nc(-c3ccnc(C(F)(F)F)c3)cc21)c1cn(C2CC2)nc1C(F)(F)F` [Compound I-398a], the IC50 is less than 250 nM.
Take `Cn1nc(C2CC2)cc1C(=O)N[C@H]1CCCCc2nn(-c3ccnc(C(F)(F)F)c3)cc21` [Compound I-369a]: the IC50 was less than 250 nM.
Consider `Cn1nc(C(F)(F)F)cc1C(=O)N[C@@H]1CCc2cnc(-c3ccnc(C(F)(F)F)c3)nc21` [Compound I-46b, (R)-1-methyl-3-(trifluoromethyl)-N-(2-(2-(trifluoromethyl)pyridin-4-yl)-6,7-dihydro-5H-cyclopenta[d]pyrimidin-7-yl)-1H-pyrazole-5-carboxamide], for which the IC50 is more than 1000 nM.
In turn, `Cn1nc(C(F)(F)F)nc1C(=O)N[C@H]1CCn2nc(-c3ccnc(C(C)(F)F)c3)cc21` [Compound I-146a, (S)—N-(2-(2-(1,1-Difluoroethyl)pyridin-4-yl)-5,6-dihydro-4H-pyrrolo[1,2-b]pyrazol-4-yl)-1-methyl-3-(trifluoromethyl)-1H-1,2,4-triazole-5-carboxamide] came in with an IC50 of less than 250 nM.
To `Cn1nc(C(F)(F)F)cc1C(=O)N[C@@H]1CCc2nn(-c3ccnc(OC(F)(F)F)c3)cc21` [Compound I-73b] belongs 500 to 1000 nM.
`O=C(N[C@H]1CCCCn2nc(-c3ccnc(C(F)(F)F)c3)cc21)c1cc(Cl)cc(C(F)(F)F)c1` [Compound I-387a]: the IC50 is less than 250 nM.
To `N#Cc1cccc(C(=O)N[C@H]2CCn3nc(-c4ccnc(C(F)(F)F)c4)cc32)c1` [Compound I-342a, (S)-3-Cyano-N-(2-(2-(trifluoromethyl)pyridin-4-yl)-5,6-dihydro-4H-pyrrolo[1,2-b]pyrazol-4-yl)benzamide] belongs less than 250 nM.
Compound `Cn1nc(C(F)(F)F)cc1C(=O)N[C@H]1CCn2nc(-c3ccnc(C(F)(F)F)c3)cc21` [Compound I-123a, (S)-1-methyl-3-(trifluoromethyl)-N-(2-(2-(trifluoromethyl)pyridin-4-yl)-5,6-dihydro-4H-pyrrolo[1,2-b]pyrazol-4-yl)-1H-pyrazole-5-carboxamide] returned an IC50 of less than 250 nM.
Next, `CCOc1cc(-n2cc3c(n2)CCCC[C@H]3NC(=O)c2cccc(C)c2)ccn1` [Compound I-361b]: more than 1000 nM.
The compound `Cn1nc(C(F)(F)F)cc1C(=O)N[C@H]1CCCCc2nn(-c3ccnc(C(F)(F)F)c3)cc21` [Compound I-45a, (S)-1-methyl-3-(trifluoromethyl)-N-(2-(2-(trifluoromethyl)pyridin-4-yl)-2,4,5,6,7,8-hexahydrocyclohepta[c]pyrazol-4-yl)-1H-pyrazole-5-carboxamide] had an IC50 of less than 250 nM.
To `Cc1cccc(C(=O)N[C@@H]2CCc3nn(-c4ccnc(C(F)(F)F)c4)cc32)c1` [Compound I-97b] belongs more than 1000 nM.
To `N#Cc1cccc(C(=O)N[C@H]2CCCCn3cc(-c4ccnc(C(F)(F)F)c4)cc32)c1` [Compound I-263a, (S)-3-Cyano-N-(2-(2-(trifluoromethyl)pyridin-4-yl)-6,7,8,9-tetrahydro-5H-pyrrolo[1,2-a]azepin-9-yl)benzamide] belongs less than 250 nM; to `COc1cc(-c2nc3c(o2)CCC[C@@H]3NC(=O)c2cccc(C(F)(F)F)c2)ccn1` [Compound I-249a, (S)-N-(2-(2-Methoxypyridin-4-yl)-4,5,6,7-tetrahydrobenzo[d]oxazol-4-yl)-3-(trifluoromethyl)benzamide], less than 250 nM; to `O=C(N[C@H]1CCc2nn(-c3ccnc(C(F)(F)F)c3)cc21)c1cc(F)cc(C2CC2)c1` [Compound I-562a, (S)-3-Cyclopropyl-5-fluoro-N-(2-(2-(trifluoromethyl)pyridin-4-yl)-2,4,5,6-tetrahydrocyclopenta[c]pyrazol-4-yl)benzamide], less than 250 nM.
